pIC50: −log10 of the molar value.
Tested on: PC-3 multi-cell spheroids, viability
Test: Anticancer human tumor PC-3 cell line growth inhibition [IpAb];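 also: spheroids exposed to compounds for 7 days before readout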;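 as to viability, T/C: 100% = DMSO vehicle control wells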
Settings: for pIC50: curve of first compound; for viability, T/C: stronger effect = lower value
Procedure, shortened: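 Spheroids of 60% malignant cells, 25% HUVEC and 15% MSC were exposed to targeted agents combined with ipatasertib or abemaciclib. Doses started at or near clinical Cmax (10 microM when unknown) and fell in half-log steps.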

[1] = second compound 0.01 µM, first compound 0.0316 µM
[2] = second compound 0.01 µM, first compound 0.1 µM
[3] = second compound 0.01 µM, first compound 0.316 µM
[4] = second compound 0.01 µM, first compound 1 µM
[5] = second compound 0.0316 µM, first compound 0.0316 µM
[6] = second compound 0.0316 µM, first compound 0.1 µM
[7] = second compound 0.0316 µM, first compound 0.316 µM
[8] = second compound 0.0316 µM, first compound 1 µM
[9] = second compound 0.1 µM, first compound 0.0316 µM
[10] = second compound 0.1 µM, first compound 0.1 µM
[11] = second compound 0.1 µM, first compound 0.316 µM
[12] = second compound 0.1 µM, first compound 1 µM
[13] = second compound 0.316 µM, first compound 0.0316 µM
[14] = second compound 0.316 µM, first compound 0.1 µM
[15] = second compound 0.316 µM, first compound 0.316 µM
[16] = second compound 0.316 µM, first compound 1 µM
[17] = second compound 1 µM, first compound 0.0316 µM
[18] = second compound 1 µM, first compound 0.1 µM
[19] = second compound 1 µM, first compound 0.316 µM
[20] = second compound 1 µM, first compound 1 µM
[21] = second compound 0.01 µM, first compound 3.16 µM
[22] = second compound 0.01 µM, first compound 10 µM
[23] = second compound 0.0316 µM, first compound 3.16 µM
[24] = second compound 0.0316 µM, first compound 10 µM
[25] = second compound 0.1 µM, first compound 3.16 µM
[26] = second compound 0.1 µM, first compound 10 µM
[27] = second compound 0.316 µM, first compound 3.16 µM
[28] = second compound 0.316 µM, first compound 10 µM
[29] = second compound 1 µM, first compound 3.16 µM
[30] = second compound 1 µM, first compound 10 µM

| SMILES | pIC50 (second compound 0.01 µM) | pIC50 (second compound 0.0316 µM) | pIC50 (second compound 0.1 µM) | pIC50 (second compound 0.316 µM) | pIC50 (second compound 1 µM) | viability, T/C [1] | viability, T/C [2] | viability, T/C [3] | viability, T/C [4] | viability, T/C [5] | viability, T/C [6] | viability, T/C [7] | viability, T/C [8] | viability, T/C [9] | viability, T/C [10] | viability, T/C [11] | viability, T/C [12] | viability, T/C [13] | viability, T/C [14] | viability, T/C [15] | other results |
| --- | --- | --- | --- | --- | --- | --- | --- | --- | --- | --- | --- | --- | --- | --- | --- | --- | --- | --- | --- | --- | --- |
| COc1c(OCCCN2CCOCC2)ccc2c3n(c(=NC(=O)c4cnc(N)nc4)nc12)CCN3 + CCN1CCN(Cc2ccc(Nc3ncc(F)c(-c4cc(F)c5nc(C)n(C(C)C)c5c4)n3)nc2)CC1 | 7.02 | 7.04 | 7.06 | 7.11 | 7.09 | 140% | 47% | 13.3% | 8.39% | 142% | 43.2% | 11% | 8.82% | 140% | 37% | 12.8% | 9.54% | 111% | 34.5% | 14.8% | viability, T/C (second compound 0.01 µM, first compound 0.00316 µM): 89.5%; viability, T/C (second compound 0.01 µM, first compound 0.01 µM): 99.3%; viability, T/C (second compound 0.0316 µM, first compound 0.00316 µM): 109%; viability, T/C (second compound 0.0316 µM, first compound 0.01 µM): 121%; viability, T/C (second compound 0.1 µM, first compound 0.00316 µM): 156%; viability, T/C (second compound 0.1 µM, first compound 0.01 µM): 161%; viability, T/C (second compound 0.316 µM, first compound 0.00316 µM): 174%; viability, T/C (second compound 0.316 µM, first compound 0.01 µM): 170%; viability, T/C [16]: 13.3%; viability, T/C (second compound 1 µM, first compound 0.00316 µM): 173%; viability, T/C (second compound 1 µM, first compound 0.01 µM): 171%; viability, T/C [17]: 104%; viability, T/C [18]: 40.4%; viability, T/C [19]: 25%; viability, T/C [20]: 28.6% |
| Cc1nc(NC(=O)N2CCCC2C(N)=O)sc1-c1ccnc(C(C)(C)C(F)(F)F)c1 (stereo not given) + CCN1CCN(Cc2ccc(Nc3ncc(F)c(-c4cc(F)c5nc(C)n(C(C)C)c5c4)n3)nc2)CC1 | 5.95 | 5.86 | 6.31 | 6.28 | 6.76 | 68.2% | 48.2% | 50.6% | 51.2% | 54.5% | 52.7% | 58.6% | 53.9% | 49% | 55.5% | 51.2% | 47.5% | 59.4% | 63.2% | 55.6% | viability, T/C [21]: 43.4%; viability, T/C [22]: 13.6%; viability, T/C [23]: 39.1%; viability, T/C [24]: 11.1%; viability, T/C [25]: 32.9%; viability, T/C [26]: 11.5%; viability, T/C [16]: 41.5%; viability, T/C [27]: 27.8%; viability, T/C [28]: 11.9%; viability, T/C [17]: 62%; viability, T/C [18]: 53.6%; viability, T/C [19]: 45.9%; viability, T/C [20]: 29.6%; viability, T/C [29]: 20.6%; viability, T/C [30]: 14.4% |
| Cn1nccc1Nc1nccc(-c2ccn(C(CO)c3ccc(Cl)c(F)c3)c(=O)c2)n1 (stereo not given) + CCN1CCN(Cc2ccc(Nc3ncc(F)c(-c4cc(F)c5nc(C)n(C(C)C)c5c4)n3)nc2)CC1 | < 5.00 | < 5.00 | < 5.00 | < 5.00 | < 5.00 | 87.1% | 78.3% | 97.1% | 114% | 59.1% | 58% | 66.1% | 76.6% | 54.4% | 52.1% | 55.6% | 64.8% | 52.4% | 68.5% | 64.7% | viability, T/C [21]: 127%; viability, T/C [22]: 93.8%; viability, T/C [23]: 115%; viability, T/C [24]: 39.8%; viability, T/C [25]: 87.7%; viability, T/C [26]: 47.2%; viability, T/C [16]: 65.4%; viability, T/C [27]: 72.9%; viability, T/C [28]: 54.3%; viability, T/C [17]: 62.4%; viability, T/C [18]: 57.1%; viability, T/C [19]: 61.2%; viability, T/C [20]: 63.2%; viability, T/C [29]: 92%; viability, T/C [30]: 51.5% |
